# Results published in ChEMBL document CHEMBL1949643, “Dactylomelatriol, a biogenetically intriguing omphalane-derived marine sesquiterpene” (2012).
# Experiments:
# Bacillus cereus = test: Antimicrobial activity against Bacillus cereus ATCC 21772 by broth macrodilution method; type: functional
# Candida albicans = test: Antifungal activity against Candida albicans SC5314 by broth macrodilution method; type: functional
Compound,MIC (Bacillus cereus) [µg/mL],MIC (Candida albicans) [µg/mL]
C=C1C[C@H](O)[C@H](Br)C(C)(C)[C@@]12CCC(C)=C(Cl)C2 [ELATOL],> 50,–
C=C1C[C@@H](O)[C@@H](Br)C(C)(C)[C@]12CC[C@@](C)(Br)[C@H](Cl)C2 [OBTUSOL],> 50,> 50
